From patent publication US20030109571A1, “Thromboxane ligands without blood clotting side effects” (ALLERGAN SALES, INC., priority 1993, published 2003)
“Also recorded” adds a separate entry of the source. Like-named read-outs stand apart in the source and are kept apart here. Marks after values point to notes of the source that are not given here.

Legend:
platelets [1] = conditions: in words; cited from earlier work
EP3 prostanoid receptor [2] = assay: EP3-activity: contraction of longitudinal smooth muscle of isolated chick ileum; conditions: read-out: EC50 at EP3(d) (Chick Ileum)
Description: (§1) Activity at different prostanoid receptors was measured in vitro in isolated smooth muscle preparations. FP-activity was measured as contraction of the isolated feline iris sphincter. EP1-activity was measured as contraction of the longitudinal smooth muscle of the isolated guinea pig ileum. EP3-activity was measured as inhibition of the twitch response induced by electrical field stimulation in the isolated guinea pig was deferens and as contraction of the longitudinal smooth muscle of the isolated chick ileum. TP-vasoconstrictor activity was measured as contraction of rings of the isolated rat thoracic aorta. Effects on platelets from healthy human donors were measured by incubating platelet-rich plasma with the compounds described herein. Inhibition of aggregation was determined by the ability of the compounds described herein to inhibit platelet aggregation in platelet-rich plasma induced by 20 μM ADP.

vasculature = conditions: in words; cited from earlier work
[3] = tested on: isolated perfused coronary arteries; conditions: cited from earlier work
[4] = molecular target: T1, TP-receptor (vascular, TPVASC) (Rattus norvegicus, UniProt P34978); assay: TP-vasoconstrictor activity: contraction of rings of isolated rat thoracic aorta, without or with SQ29,548
T1 construct: measured in vitro in isolated smooth muscle preparations; from tissue; host or cells: rings of isolated rat thoracic aorta
T1 sequence (P34978 1-341): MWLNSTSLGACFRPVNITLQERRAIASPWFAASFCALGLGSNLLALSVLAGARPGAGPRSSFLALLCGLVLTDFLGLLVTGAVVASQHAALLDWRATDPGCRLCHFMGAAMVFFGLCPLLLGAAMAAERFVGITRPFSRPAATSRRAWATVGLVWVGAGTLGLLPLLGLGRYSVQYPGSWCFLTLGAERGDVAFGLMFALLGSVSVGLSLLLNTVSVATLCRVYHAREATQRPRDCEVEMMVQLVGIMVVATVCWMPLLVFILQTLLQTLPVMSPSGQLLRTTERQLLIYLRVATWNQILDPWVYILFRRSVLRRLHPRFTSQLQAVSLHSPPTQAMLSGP
Description: as §1
In addition, inhibition by the thromboxane A2-receptor antagonist SQ29,548 ([1S-[1α, 2α (5Z), 3α, 4α]]-7-[3-[[2-[phenylamino)carbonyl]-hydrazino]methyl]-7-oxabicyclo[2.2.1] hept-2-yl]-5-heptenoic acid) of vasoconstrictor activity was investigated.

EP3 prostanoid receptor [5] = assay: EP3-activity: inhibition of electrically induced twitch response in isolated guinea pig vas deferens; conditions: read-out: EC50 at EP3(c) (Guinea Pig vas deferens)
Description: as §1

Platelets [6] = assay: Effect of Example 4 pretreatment on agonist-induced platelet aggregation; format: cell-based, human
Description: as §1, with “Inhibition of aggregation was determined by the ability of the compounds described herein to inhibit platelet aggregation in platelet-rich plasma induced by 20 μM ADP.” left out

Platelets (Human) = assay: Platelet aggregation in platelet-rich plasma from healthy human donors; format: cell-based; conditions: for EC50: Table 1, read-out: EC50 Platelets (Human) Aggregation
Description: as §1

FP prostanoid receptor = assay: FP-activity: contraction of the isolated feline iris sphincter; conditions: concentration producing 50% of maximal response; read-out: EC50 at FP (Cat Iris)
Description: as §1

[7] = Dog intraocular pressure, topical dosing, applanation pneumatonometry; format: in vivo; conditions: dog
Description: (§2) The compounds were prepared at the said concentrations in a vehicle comprising 0.1% polysorbate 80 and 10 mM TRIS base. Dogs and monkeys were treated by administering 25 ul to the ocular surface, the contralateral eye received vehicle as a control. Intraocular pressure was measured by applanation pneumatonometry. Experiments were performed with dogs and monkeys. Dog intraocular pressure was measured immediately before drug administration and at 2, 4 and 6 hour thereafter. Additional studies in monkeys were performed over a 5 day period and drug was administered at times 0, 6, 24, 30, 48, 54, 72, 78, and 96 hours. Monkey intraocular pressure was recorded just before drug administration on each day and at the 2 and 4 hour time intervals between dosing.

[8] = in vivo, iv; cited from earlier work
[9] = Monkey intraocular pressure, topical dosing over 5 days, applanation pneumatonometry; format: in vivo; set-up: Intraocular pressure change: unit not given beside the values; conditions: monkey, dose 0.01%
Description: as §2

EP1 prostanoid receptor = assay: EP1-activity: contraction of longitudinal smooth muscle of isolated guinea pig ileum
Description: as §1

rat aorta = conditions: read-out: CD50 contraction of isolated rat aorta; cited from earlier work
HPRP = conditions: read-out: IC50 irreversible aggregation of HPRP; cited from earlier work
[10] = Table 1, read-out: EC50 at TPVASC (Rat Aorta)
[11] = absence of SQ29,548, read-out: EC50 at TPVASC-receptor, rat aorta
[12] = presence of SQ29,548 (1 uM), read-out: EC50 at TPVASC-receptor, rat aorta

CCCCC[C@H](O)/C=C/[C@@H]1[C@@H](C/C=C\CCCCO)[C@@H]2C[C@H]1OC(=O)O2 [Example 4]
Action on platelets (platelets [1]): profound TXA antagonist
EC50 (EP3 prostanoid receptor [2]): > 10000 nM
Action on the vasculature (vasculature): Potent TXA2-like agonist
Constriction of isolated perfused coronary arteries ([3]; cat, in words): profound constric- tion
Constriction of isolated perfused coronary arteries, potency relative to TXB2 ([3]; cat): 10^1 × TXB2
EC50 [4, 10]: 1 nM
EC50 [4, 11]: 0.9 nM
Activity in contracting vascular smooth muscle ([4]; in words): pronounced activity
EC50 [4, 12]: 454 nM
EC50 (EP3 prostanoid receptor [5]): 2930 nM
Platelet aggregation after Example 4 pretreatment (Platelets [6]; agonist 2 μM ADP, 10^-6 M Example 4): 73.1 ± 14.3 % of max response
Platelet aggregation after Example 4 pretreatment (Platelets [6]; agonist 2 μM ADP, 10^-7 M Example 4): 68.3 ± 12.9 % of max response
Platelet aggregation after Example 4 pretreatment (Platelets [6]; agonist 20 μM ADP, 10^-6 M Example 4): 97.6 ± 1.8 % of max response
Platelet aggregation after Example 4 pretreatment (Platelets [6]; agonist 20 μM ADP, 10^-7 M Example 4): 99.9 ± 1.4 % of max response
Platelet aggregation after Example 4 pretreatment (Platelets [6]; agonist 800 μM Arachidonic Acid, 10^-6 M Example 4): 98.8 ± 1.1 % of max response
Platelet aggregation after Example 4 pretreatment (Platelets [6]; agonist 800 μM Arachidonic Acid, 10^-7 M Example 4): 98.0 ± 1.8 % of max response
Platelet aggregation after Example 4 pretreatment (Platelets [6]; agonist 3.3 × 10-7 U46619, 10^-6 M Example 4): 94.2 ± 2.8 % of max response
Platelet aggregation after Example 4 pretreatment (Platelets [6]; agonist 3.3 × 10-7 U46619, 10^-7 M Example 4): 93.8 ± 2.3 % of max response
Platelet aggregation after Example 4 pretreatment (Platelets [6]; agonist 3.3 × 10-8 Example 7, 10^-6 M Example 4): −7.3 + 0.7 % of max response
Platelet aggregation after Example 4 pretreatment (Platelets [6]; agonist 3.3 × 10-8 Example 7, 10^-7 M Example 4): −9.0 + 1.6 % of max response
Platelet aggregation after Example 4 pretreatment (Platelets [6]; agonist 10-6 Example 7, 10^-6 M Example 4): 96.5 ± 0.9 % of max response
Platelet aggregation after Example 4 pretreatment (Platelets [6]; agonist 10-6 Example 7, 10^-7 M Example 4): 95.3 ± 0.9 % of max response
Platelet aggregation after Example 4 pretreatment (Platelets [6]; agonist 10-6 U46619, 10^-6 M Example 4): 96.0 ± 0.8 % of max response
Platelet aggregation after Example 4 pretreatment (Platelets [6]; agonist 10-6 U46619, 10^-7 M Example 4): 94.6 ± 2.6 % of max response
Platelet aggregation after Example 4 pretreatment (Platelets [6]; agonist 10-7 Example 7, 10^-6 M Example 4): 99.5 ± 1.7 % of max response
Platelet aggregation after Example 4 pretreatment (Platelets [6]; agonist 10-7 Example 7, 10^-7 M Example 4): 97.8 ± 1.7 % of max response
Platelet aggregation after Example 4 pretreatment (Platelets [6]; agonist 10-7 U46619, 10^-6 M Example 4): −5.6 + 0.9 % of max response
Platelet aggregation after Example 4 pretreatment (Platelets [6]; agonist 10-7 U46619, 10^-7 M Example 4): −5.5 + 1.1 % of max response
Platelet aggregation after Example 4 pretreatment (Platelets [6]; agonist 10-8 Example 7, 10^-6 M Example 4): −8.0 + 2.9 % of max response
Platelet aggregation after Example 4 pretreatment (Platelets [6]; agonist 10-8 Example 7, 10^-7 M Example 4): −8.4 + 0.9 % of max response
Inhibition of ADP or arachidonic acid induced platelet aggregation (Platelets [6]; in words): did not inhibit
EC50 (Platelets (Human)): > 10000 nM
Ability to cause platelet aggregation (Platelets (Human); in words): no or minimal ability; also recorded: neither causes platelet aggregation
EC50 (FP prostanoid receptor): 485 nM
Intraocular pressure change ([7]; dose 0.1%, 2 HR after dosing): −6.7**
Intraocular pressure change ([7]; dose 0.1%, 4 HR after dosing): −7.7**
Intraocular pressure change ([7]; dose 0.1%, 6 HR after dosing): −8.5**
Ischemic damage in the heart during coronary insufficiency [8]: Exacerbated ischemic damage

CCCCCC(O)/C=C/C1C2CC(OC(=O)O2)C1C/C=C\CCCC(=O)O (stereo not shown) [Example 7]
EC50 (EP3 prostanoid receptor [2]): 245 nM
Inhibition of vasoconstriction of isolated perfused cat coronary artery induced by carbocyclic TXA2 ([3]; at 1 μM): Inhibited vasoconstriction of isolated perfused cat coronary artery induced by carbocyclic TXA2 by 72% at 1 μM^11
EC50 [4, 10]: 0.23 nM
EC50 [4, 11]: 2 nM
EC50 [4, 12]: 325 nM
EC50 (EP3 prostanoid receptor [5]): 282 nM
EC50 (Platelets (Human)): 24 nM
Agonist response, platelet aggregation (Platelets (Human); agonist alone at 3.3 × 10-8): −8.8 + 1.3 % of max response
Agonist response, platelet aggregation (Platelets (Human); agonist alone at 10-6): 103.0 ± 1.9 % of max response
Agonist response, platelet aggregation (Platelets (Human); agonist alone at 10-7): 100.5 ± 2.2 % of max response
Agonist response, platelet aggregation (Platelets (Human); agonist alone at 10-8): −7.9 + 1.3 % of max response
Agonist response, platelet aggregation (Platelets (Human); agonist alone at 10-9): 0 % of max response
Intraocular pressure change ([9]; 0 HR): 0
Intraocular pressure change ([9]; 2 HR): −0.4
Intraocular pressure change ([9]; 4 HR): 0
Intraocular pressure change ([9]; 6 HR): 0
Intraocular pressure change ([9]; 24 HR): −1.0
Intraocular pressure change ([9]; 26 HR): 3.2
Intraocular pressure change ([9]; 28 HR): −4.6
Intraocular pressure change ([9]; 30 HR): −3.2
Intraocular pressure change ([9]; 48 HR): −1.8
Intraocular pressure change ([9]; 50 HR): −3.8
Intraocular pressure change ([9]; 52 HR): −4.0
Intraocular pressure change ([9]; 54 HR): −4.2
Intraocular pressure change ([9]; 72 HR): 4.2
Intraocular pressure change ([9]; 74 HR): −2.0
Intraocular pressure change ([9]; 76 HR): −3.2
Intraocular pressure change ([9]; 78 HR): −4.0
Intraocular pressure change ([9]; 96 HR): −2.0
Intraocular pressure change ([9]; 98 HR): −2.2
Intraocular pressure change ([9]; 100 HR): −3.2
EC50 (EP1 prostanoid receptor): 1240 nM
EC50 (FP prostanoid receptor): 433 nM
Intraocular pressure change ([7]; dose 0.01%, 2 HR after dosing): −9.7**
Intraocular pressure change ([7]; dose 0.01%, 4 HR after dosing): −11.4**
Intraocular pressure change ([7]; dose 0.01%, 6 HR after dosing): −11.25**

CCCCC[C@H](O)/C=C/C1S[C@H]2CC(S2)[C@@H]1C/C=C\CCCC(=O)O (stereo partly shown) [Example 13]
EC50 (rat aorta): 0.7 nM
IC50 (HPRP): 4300 nM
